Assay [1] concerns the target T1, Vasopressin V2 receptor (Homo sapiens, UniProt P30518). Description: Binding affinity to V2 receptor (unknown origin).
Assay [2] deals with T2, Vasopressin V1a receptor (Homo sapiens, UniProt P37288). Briefly: Antagonist activity at human V1A receptor expressed in CHO cells assessed as inhibition of AVP-induced myo-inositol 1-phosphate accumulation at 1 uM by IP-One assay relative to AVP. In kind it is functional, cell-based.
Target sequence in this assay (P37288 whole entry, looked up): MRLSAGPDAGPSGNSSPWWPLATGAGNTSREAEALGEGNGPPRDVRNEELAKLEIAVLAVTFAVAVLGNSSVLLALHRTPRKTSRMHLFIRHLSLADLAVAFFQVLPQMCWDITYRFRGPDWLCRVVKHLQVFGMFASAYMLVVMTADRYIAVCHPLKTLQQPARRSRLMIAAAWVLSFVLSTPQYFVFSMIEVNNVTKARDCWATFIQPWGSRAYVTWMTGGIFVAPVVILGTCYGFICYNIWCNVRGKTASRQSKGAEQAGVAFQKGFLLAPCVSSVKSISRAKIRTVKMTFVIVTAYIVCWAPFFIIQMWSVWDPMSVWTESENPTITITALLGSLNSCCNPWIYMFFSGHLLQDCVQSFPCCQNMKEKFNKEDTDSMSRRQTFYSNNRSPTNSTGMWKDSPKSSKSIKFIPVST
For assay [3], the target named is T2, Vasopressin V1a receptor. Description: Antagonist activity at V1A receptor (unknown origin) by cAMP accumulation assay. In kind it is functional.
Target sequence in this assay (P37288 whole entry): as the sequence (P37288 whole entry, looked up) above
Assay [4] deals with T3, Oxytocin receptor (Rattus norvegicus, UniProt P70536).
T3 sequence (P70536 whole entry): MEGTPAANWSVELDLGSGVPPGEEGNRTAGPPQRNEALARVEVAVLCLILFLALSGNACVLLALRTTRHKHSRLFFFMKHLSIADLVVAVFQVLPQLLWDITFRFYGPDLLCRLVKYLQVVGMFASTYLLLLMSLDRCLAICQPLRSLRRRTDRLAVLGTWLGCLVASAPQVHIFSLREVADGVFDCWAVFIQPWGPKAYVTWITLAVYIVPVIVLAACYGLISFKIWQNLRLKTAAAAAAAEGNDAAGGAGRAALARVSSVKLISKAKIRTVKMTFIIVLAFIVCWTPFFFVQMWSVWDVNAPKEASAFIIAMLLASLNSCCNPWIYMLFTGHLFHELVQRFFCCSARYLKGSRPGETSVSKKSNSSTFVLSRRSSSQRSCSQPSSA
Briefly: Antagonist activity at OXR receptor in rat uterus. The class given is functional.

The target in assay [5] is T2, Vasopressin V1a receptor. Briefly: Agonist activity at human V1A receptor expressed in CHO cells assessed as increase in myo-inositol 1-phosphate accumulation at 1 uM by IP-One assay relative to AVP. In kind it is functional, cell-based.
Target sequence in this assay (P37288 whole entry, looked up): as the sequence (P37288 whole entry, looked up) above
For assay [6], the species on record is Homo sapiens. Description: Selectivity for human OTR receptor over human V2 receptor.
For assay [7], the species on record is Homo sapiens. Briefly: Selectivity for human V1a receptor over human V2 receptor.
Assay [8] addresses T1, Vasopressin V2 receptor. Briefly: Agonist activity at V2 receptor (unknown origin) by cAMP accumulation assay. The class given is functional. A general note: Cyclic AMP is a second messenger, typically raised through Gs and lowered through Gi signalling.
Assay [9] addresses T4, Oxytocin receptor (Homo sapiens, UniProt P30559).
T4 sequence (P30559 whole entry): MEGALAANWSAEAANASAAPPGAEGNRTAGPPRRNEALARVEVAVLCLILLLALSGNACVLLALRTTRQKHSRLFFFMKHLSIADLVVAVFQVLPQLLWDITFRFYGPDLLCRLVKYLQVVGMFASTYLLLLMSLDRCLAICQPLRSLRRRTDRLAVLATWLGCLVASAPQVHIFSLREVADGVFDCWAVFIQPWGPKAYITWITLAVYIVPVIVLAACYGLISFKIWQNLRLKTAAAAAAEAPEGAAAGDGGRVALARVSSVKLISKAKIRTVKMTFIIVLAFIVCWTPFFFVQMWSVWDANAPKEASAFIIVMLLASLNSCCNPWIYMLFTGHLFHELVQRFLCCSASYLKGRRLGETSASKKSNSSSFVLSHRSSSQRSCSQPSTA
Description: Binding affinity to OTR receptor (unknown origin).

In assay [10] the target is T2, Vasopressin V1a receptor. Briefly: Binding affinity to V1A receptor (unknown origin).
Target sequence in this assay (P37288 whole entry): as the sequence (P37288 whole entry, looked up) above
A further assay has as its target T5, Vasopressin V1b receptor (Homo sapiens, UniProt P47901).
T5 sequence (P47901 whole entry): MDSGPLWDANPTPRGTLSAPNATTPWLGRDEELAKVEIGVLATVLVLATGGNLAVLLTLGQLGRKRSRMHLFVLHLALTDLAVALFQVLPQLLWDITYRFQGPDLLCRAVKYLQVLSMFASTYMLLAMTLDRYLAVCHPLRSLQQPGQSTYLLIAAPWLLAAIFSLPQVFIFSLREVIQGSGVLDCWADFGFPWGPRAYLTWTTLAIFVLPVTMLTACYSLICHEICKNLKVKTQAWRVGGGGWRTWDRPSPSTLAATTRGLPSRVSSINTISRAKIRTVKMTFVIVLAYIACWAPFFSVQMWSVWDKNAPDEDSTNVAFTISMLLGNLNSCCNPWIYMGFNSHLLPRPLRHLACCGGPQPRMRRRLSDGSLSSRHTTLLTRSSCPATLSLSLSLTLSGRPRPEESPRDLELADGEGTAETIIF
Briefly: Binding affinity to V1B receptor (unknown origin).

Assay [11] deals with T4, Oxytocin receptor. Description: Antagonist activity at human OTR receptor expressed in HEK293FT cells assessed as inhibition of LIT-001-induced response incubated for 30 mins by beta-arrestin recruitment assay. In kind it is functional, cell-based. A general note: Arrestin recruitment assays detect the binding of arrestin to an activated receptor.
Assay [12] has as its target T1, Vasopressin V2 receptor. Briefly: Antagonist activity at human V2 receptor expressed in HEK293FT cells assessed as inhibition of […] response incubated for 30 mins by beta-arrestin recruitment assay. The class given is functional, cell-based.
In assay [13] the target is T4, Oxytocin receptor. Briefly: Antagonist activity at human OTR receptor expressed in HEK293FT cells assessed as inhibition of LIT-001-induced calcium release by Aequorin based assay. In kind it is functional, cell-based.
In assay [14] the target is T1, Vasopressin V2 receptor. Description: Antagonist activity at human V2 receptor expressed in HEK293FT cells assessed as inhibition of AVP-induced calcium release by Aequorin based assay. The class given is functional, cell-based.

Each structure is given as a SMILES string.

T1 sequence (P30518 whole entry): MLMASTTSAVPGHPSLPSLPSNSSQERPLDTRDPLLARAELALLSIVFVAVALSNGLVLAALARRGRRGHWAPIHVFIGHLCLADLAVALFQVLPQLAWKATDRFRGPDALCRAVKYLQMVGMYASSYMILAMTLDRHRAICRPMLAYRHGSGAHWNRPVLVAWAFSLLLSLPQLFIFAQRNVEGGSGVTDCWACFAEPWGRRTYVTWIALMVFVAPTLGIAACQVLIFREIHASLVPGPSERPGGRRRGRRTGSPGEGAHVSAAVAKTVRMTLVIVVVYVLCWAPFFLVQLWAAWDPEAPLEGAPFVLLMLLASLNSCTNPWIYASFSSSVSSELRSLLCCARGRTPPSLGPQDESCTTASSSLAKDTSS

For the molecule `Cc1ccn(-c2ccc(C(=O)N3Cc4cccn4Cc4ccccc43)c(Cl)c2)n1`, the inhibition constant (Ki) – broadly, a measure of affinity in units of concentration, obtained from inhibition or displacement – was 39.9 nM at Vasopressin V2 receptor [1], 125 nM at Oxytocin receptor [9], 465 nM on Vasopressin V1a receptor [10] and > 1000 nM at Vasopressin V1b receptor. In addition, the inhibition (in general, the change of the read-out against control, counted positive when it falls) at Vasopressin V1a receptor [2] amounted to 33%. Also, the half-inhibitory concentration (IC50) (as a rule, the concentration at which inhibition is half-maximal) on Vasopressin V1a receptor [3] stood at 1660 nM; against Oxytocin receptor [4] it was 55 nM. Moreover, the Emax – broadly, the size of the effect at its maximum, as opposed to the concentration needed – on Vasopressin V1a receptor [5] is < 10%. Further, the results for the Selectivity ratio in the assay listed under Homo sapiens [6] and in the assay filed under Homo sapiens [7] were 4 and 6.9, respectively. The EC50 (commonly the midpoint of the concentration-response curve) on Vasopressin V2 receptor [8] stood at 0.7 nM.

`COCc1nnc(N2CC(Oc3ccc(F)cc3Cl)C2)n1-c1ccc(OC)nc1`: the IC50 stood at 63 nM at Oxytocin receptor [11], 2620 nM on Vasopressin V2 receptor [12], 600 nM at Oxytocin receptor [13] and 1530 nM on Vasopressin V2 receptor [14].

(Values after ChEMBL document CHEMBL4196200 (J Med Chem, 2018).)
